Laboratory results from patent US11370794B2, “Toll-like receptor antagonist compounds and methods of use” (Dynavax Technologies Corporation, priority 2016, dated 2022).
pIC50: −log10 of the molar value.

Tests used:
[1] = target: T1, human TLR9 (Homo sapiens, UniProt Q9NR96); assay: Inhibition of human TLR9 in human B cells (IL-6 ELISA); format: cell-based; conditions: human B cells, agonist 1018 ISS 1 μM, IL-6 readout, 48 hours; range about 0.01 to 10 μM; read-out: Human TLR9 IC50
T1 construct: endogenous in cells; host or cells: primary human B cells (CD19 microbeads) from buffy coats of healthy donors
T1 sequence (Q9NR96 26-1032): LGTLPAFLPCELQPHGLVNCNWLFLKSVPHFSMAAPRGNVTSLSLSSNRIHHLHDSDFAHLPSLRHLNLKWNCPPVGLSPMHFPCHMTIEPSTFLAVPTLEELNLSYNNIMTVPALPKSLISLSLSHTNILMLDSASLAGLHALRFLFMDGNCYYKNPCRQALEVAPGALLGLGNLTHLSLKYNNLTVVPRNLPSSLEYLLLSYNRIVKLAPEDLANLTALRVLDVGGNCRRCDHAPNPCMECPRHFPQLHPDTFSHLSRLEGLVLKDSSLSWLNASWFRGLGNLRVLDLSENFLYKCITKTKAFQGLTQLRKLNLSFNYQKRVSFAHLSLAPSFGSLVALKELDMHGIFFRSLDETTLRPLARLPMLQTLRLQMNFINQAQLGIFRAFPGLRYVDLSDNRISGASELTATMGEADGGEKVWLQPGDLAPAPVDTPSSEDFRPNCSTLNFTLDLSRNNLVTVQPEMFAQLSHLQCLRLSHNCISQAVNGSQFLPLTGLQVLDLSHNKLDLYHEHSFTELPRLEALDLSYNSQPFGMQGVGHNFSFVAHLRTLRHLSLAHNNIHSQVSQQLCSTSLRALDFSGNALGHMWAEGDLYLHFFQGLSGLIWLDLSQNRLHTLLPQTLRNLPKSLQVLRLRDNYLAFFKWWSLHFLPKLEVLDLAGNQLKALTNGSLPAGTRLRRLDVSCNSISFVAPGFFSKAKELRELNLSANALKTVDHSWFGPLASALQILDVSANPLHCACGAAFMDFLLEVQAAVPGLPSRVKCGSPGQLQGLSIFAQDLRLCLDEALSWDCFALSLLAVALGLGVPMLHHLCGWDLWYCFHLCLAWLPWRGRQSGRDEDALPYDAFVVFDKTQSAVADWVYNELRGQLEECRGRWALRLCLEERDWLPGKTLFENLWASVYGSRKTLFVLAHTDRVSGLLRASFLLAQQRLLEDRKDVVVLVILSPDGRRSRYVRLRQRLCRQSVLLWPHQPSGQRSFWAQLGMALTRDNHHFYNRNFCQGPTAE
Summary of the method: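 Primary human B cells (CD19-isolated from donor buffy coats), ~300,000 per well, treated with compound (about 0.01–10 μM, some 0.001–30 μM) then 1 μM CpG oligonucleotide 1018 ISS. After 48 hours at 37° C, supernatant IL-6 measured by ELISA; IC50 from concentration-response of TLR9-dependent activity.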

[2] = target: T2, human TLR8 (Homo sapiens, UniProt Q9NR97); assay: Inhibition of human TLR8 in human monocytes (TNF-alpha / IL-1 beta ELISA); format: cell-based; conditions: human monocytes, agonist ORN8L 100 μg/mL, TNF-alpha readout, 24 hours; read-out: Human TLR8 IC50 TNF-a
T2 construct: endogenous in cells; host or cells: primary human monocytes (CD14 microbeads) from buffy coats of healthy donors
T2 sequence (Q9NR97 27-1041): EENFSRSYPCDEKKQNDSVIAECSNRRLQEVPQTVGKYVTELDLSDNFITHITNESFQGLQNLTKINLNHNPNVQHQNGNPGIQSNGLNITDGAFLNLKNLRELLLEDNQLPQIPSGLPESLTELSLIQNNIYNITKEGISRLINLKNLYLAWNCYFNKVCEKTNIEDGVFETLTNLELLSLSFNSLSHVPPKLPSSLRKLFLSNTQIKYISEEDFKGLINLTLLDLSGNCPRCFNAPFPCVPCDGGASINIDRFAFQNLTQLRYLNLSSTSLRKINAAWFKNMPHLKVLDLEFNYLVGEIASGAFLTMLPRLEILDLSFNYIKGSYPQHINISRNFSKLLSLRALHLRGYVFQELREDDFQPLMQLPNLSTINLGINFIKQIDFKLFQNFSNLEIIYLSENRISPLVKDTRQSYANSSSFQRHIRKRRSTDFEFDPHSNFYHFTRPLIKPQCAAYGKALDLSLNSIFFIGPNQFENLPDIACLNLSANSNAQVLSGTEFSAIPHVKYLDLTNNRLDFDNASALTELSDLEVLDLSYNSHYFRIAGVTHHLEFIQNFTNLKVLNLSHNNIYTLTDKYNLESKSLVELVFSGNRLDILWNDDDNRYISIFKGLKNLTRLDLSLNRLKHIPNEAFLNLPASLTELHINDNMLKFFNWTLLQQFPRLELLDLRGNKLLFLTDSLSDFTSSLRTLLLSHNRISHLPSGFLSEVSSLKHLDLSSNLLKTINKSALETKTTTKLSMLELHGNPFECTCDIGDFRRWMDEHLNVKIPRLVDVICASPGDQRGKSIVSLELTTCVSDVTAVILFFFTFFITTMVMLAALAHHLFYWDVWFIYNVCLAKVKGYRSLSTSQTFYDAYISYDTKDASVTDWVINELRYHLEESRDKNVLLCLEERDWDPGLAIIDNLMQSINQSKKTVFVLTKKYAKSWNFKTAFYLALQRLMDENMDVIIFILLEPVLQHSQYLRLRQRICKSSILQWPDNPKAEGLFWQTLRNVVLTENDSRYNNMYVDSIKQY
Summary of the method: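 Primary human monocytes from donor buffy coats (~200,000 cells/well) given serially diluted compound, then ORN8L RNA oligonucleotide agonist at 100 μg/mL final. After 24 h at 37 °C, supernatant TNF-alpha and/or IL-1 beta measured by ELISA; IC50 from the concentration-response of cytokine release.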

With `Cc1ccc(-n2nc3c(N4CCC(C(=O)N5CCC6(CNC6)C5)CC4)nnc(C)c3c2C)cc1` [compound 74, (1-(3,4-dimethyl-2-(p-tolyl)-2H-pyrazolo[3,4-d]pyridazin-7-yl)piperidin-4-yl)(2,6-diazaspiro[3.4]octan-6-yl)methanone] the pIC50 [1] was 5.59 and the pIC50 [2] was ≤ 4.70.
`Cc1ccc(-n2nc3c(N4CCC(C(=O)N5CCC6(CN(C)C6)C5)CC4)nnc(C)c3c2C)cc1` [compound 75, (1-(3,4-dimethyl-2-(p-tolyl)-2H-pyrazolo[3,4-d]pyridazin-7-yl)piperidin-4-yl)(2-methyl-2,6-diazaspiro[3.4]octan-6-yl)methanone] was tested, and the pIC50 [1] was 7.60 and the pIC50 [2] was ≤ 4.70.
